In patent publication US7662364B2, “Drug for hyperphospheremia and its preparative method” (priority 2006, dated 2010):
Like-named read-outs stand apart in the source and are kept apart here.

Settings: for Removing phosphate %: 0.5 g in 100 ml, 37° C.
Method: Lanthanum carbonate 0.5 g was added to 0.85% NaCl solution 100 ml (pH 6.8) and 0.85% NaCl solution 100 ml (pH7.8), respectively. Then, sufficient quantities of Na2HPO4 were added to the two solutions, stirred at 37° C. Filtered solutions were obtained at 10 min, 30 min, 40 min and 60 min, respectively. Phosphate content was determined and the percentage of removing phosphate was computed.

`O=C([O-])[O-].O=C([O-])[O-].O=C([O-])[O-].[La+3].[La+3]` [Lanthanum carbonate] showed a Removing phosphate % (0.85% NaCl pH 6.8, 10 min) of 6.7%, a Removing phosphate % (0.85% NaCl pH 6.8, 30 min) of 13.7% and a Removing phosphate % (0.85% NaCl pH 6.8, 40 min) of 16.9%. For the same compound, the Removing phosphate % (0.85% NaCl pH 6.8, 60 min) was 20.8%, the Removing phosphate % (0.85% NaCl pH 7.8, 10 min) was 1.4% and the Removing phosphate % (0.85% NaCl pH 7.8, 30 min) was less than 2.0%. The Removing phosphate % (0.85% NaCl pH 7.8, 40 min) was less than 2.0%, the Removing phosphate % (0.85% NaCl pH 7.8, 60 min) was less than 2.0% and the “phosphate removal, result in words” value (solution whose PH was similar to that of human large intestine (pH 7.8)) was “unable to remove phosphate”. The “phosphate removal, result in words” value (solution whose PH was similar to that of human small intestine (pH 6.8)) was “removed less phosphate”.
